Results reported in publication PMC10724926, “Characterization of an efficient N-oxygenase from Saccharothrix sp. and its application in the synthesis of azomycin” (Biotechnology for Biofuels and Bioproducts, 2023).
Read-outs that look alike come from different tables or passages of the source.

Experiments:
SaRohS = test system: T1, SaRohS; assay: HPLC of azomycin formed, Michaelis-Menten fit; format: biochemical, Saccharothrix sp.; conditions: pH 5.5, 25 °C, 20 min, 10 µM enzyme, 2 mM FeSO4, 50 µM PMS, 5 mM NADH, 20 mM HEPES
T1 construct: codon-optimised gene in pETDuet-28a+, E. coli BL21 (DE3), Ni-NTA purified
Excerpt: HPLC of azomycin formed, Michaelis-Menten fit on SaRohS

Nc1ncc[nH]1 = assay: purified protein; conditions: pH 5.5, 25 °C, 20 min, 10 µM enzyme, 2 mM FeSO4, 50 µM PMS, 5 mM NADH, 20 mM HEPES

Row | Compound | Km (SaRohS) [µM] | Km (SaRohS; read-out: G95A/K115T) [µM] | Km (SaRohS; read-out: T75A) [µM] | Km (Nc1ncc[nH]1) [µM] | kcat (Nc1ncc[nH]1) [s⁻¹] | kcat/Km (Nc1ncc[nH]1) [M⁻¹ s⁻¹]
1 | Nc1ncc[nH]1 [2-aminoimidazole] | 182.69 ± 0.01 | 82.68 ± 0.001 | 924.17 ± 0.1 |  |  | 
2 | KaRohS (Kitasatospora azatica) |  |  |  | 390.55 ± 0.02 | 0.00383 ± 8.33e-05 | 10
